Read-outs that look alike come from different tables or passages of the source.
Experiments:
RS4;11 cells [1] = details: Blood, 2008, Vol. 111, 2300-2309; cited from earlier work
GST-Bc1-2 = GST-Bc1-2 (Homo sapiens, UniProt P10415); assay: Time Resolved-Fluorescence Resonance Energy Transfer (TR-FRET) Bcl-2 binding assay with F-Bak peptide probe
Protocol: The samples are then mixed on a shaker for 1 minute and incubated for an additional 3 hours at room temperature. For each assay, the probe/antibody and protein/probe/antibody were included on each assay plate as negative and positive controls, respectively.
The samples were then mixed on a shaker for 1 minute and incubated for an additional 3 hours at room temperature. For each assay, the probe/antibody and protein/probe/antibody were included on each assay plate as negative and positive controls, respectively.

RS4;11 cells [2] = assay: RS4;11 Cell Viability Assay (CellTiter Glo); assay type: cell-based; details: Homo sapiens, RS4-11, 48 h, 50,000 cells per well, 10% human serum;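 note: RS4,11 acute lymphoblastic leukemia cells, viability as percent of untreated control cells, EC50 for loss of viable cells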
Protocol: The acute lymphoblastic leukemia (ALL) cell line RS4;11 was used as the primary human cell line to assess the cellular activity of Bcl-2 selective agents in vitro and their efficacy in vivo.
Cell cytotoxicity EC50 values were assessed using CellTiter Glo (Promega) according to the manufacturer's recommendations. The EC50 values were determined as a percentage of viable cells following treatment compared to the untreated control cells.

[3] = GST-Bcl-2 1 nM, F-Bak probe 100 nM, Tb-anti-GST 1 nM, '<' = below limit of detection, read-out: TR-FRET Bcl-2 Binding Ki

Sequence of GST-Bc1-2 (P10415 whole entry): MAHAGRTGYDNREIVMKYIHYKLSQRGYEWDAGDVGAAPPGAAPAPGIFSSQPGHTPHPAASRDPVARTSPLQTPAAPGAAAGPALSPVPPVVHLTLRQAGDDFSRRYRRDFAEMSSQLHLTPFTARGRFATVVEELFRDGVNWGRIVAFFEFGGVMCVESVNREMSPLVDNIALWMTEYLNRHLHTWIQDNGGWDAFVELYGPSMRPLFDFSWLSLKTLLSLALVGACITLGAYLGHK

Row | Structure (SMILES) | sensitivity of RS4;11 cells to inhibitor (RS4;11 cells [1]) | Ki (GST-Bc1-2; [3]) | EC50 (RS4;11 cells [2]) | Ki (GST-Bc1-2; read-out: Bcl-2 FRET ki)
1 | CN(C)CC[C@H](CSc1ccccc1)Nc1ccc(S(=O)(=O)NC(=O)c2ccc(N3CCN(Cc4ccccc4-c4ccc(Cl)cc4)CC3)cc2)cc1[N+](=O)[O-] [ABT-737, N-(4-(4-((4′-chloro(1,1′-biphenyl)-2-yl)methyl)piperazin-1-yl)benzoyl)-4-(((1R)-3-(dimethylamino)-1-((phenylsulfanyl)methyl)propyl)amino)-3-nitrobenzenesulfonamide] | sensitive | – | – | –
2 | CC1(C)CCC(CN2CCN(c3ccc(C(=O)NS(=O)(=O)c4ccc(N[C@@H]5CCN(CCF)C5)c([N+](=O)[O-])c4)c(Oc4cnc5[nH]ccc5c4)c3)CC2)=C(c2ccc(Cl)cc2)C1 [Example 183, 4-(4-{[2-(4-chlorophenyl)-4,4-dimethylcyclohex-1-en-1-yl]methyl}piperazin-1-yl)-N-[(4-{[(3R)-1-(2-fluoroethyl)pyrrolidin-3-yl]amino}-3-nitrophenyl)sulfonyl]-2-(1H-pyrrolo[2,3-b]pyridin-5-yloxy)benzamide] | – | < 0.01 nM | 17.5 nM | –
3 | CC1(C)CCC(CN2CCN(c3ccc(C(=O)NS(=O)(=O)c4ccc(NC[C@H]5CC[C@H](C(=O)O)CC5)c([N+](=O)[O-])c4)c(Oc4cnc5[nH]ccc5c4)c3)CC2)=C(c2ccc(Cl)cc2)C1 [Example 380, trans-4-{[(4-{[4-(4-{[2-(4-chlorophenyl)-4,4-dimethylcyclohex-1-en-1-yl]methyl}piperazin-1-yl)-2-(1H-pyrrolo[2,3-b]pyridin-5-yloxy)benzoyl]sulfamoyl}-2-nitrophenyl)amino]methyl}cyclohexanecarboxylic acid] | – | < 0.01 nM | 134 nM | –
4 | O=C(NS(=O)(=O)c1ccc(NCC2CCOCC2)c([N+](=O)[O-])c1)c1ccc(N2CCN(Cc3ccccc3-c3ccc(Cl)cc3)CC2)cc1Oc1ccc2[nH]ccc2c1 [Example 87, 4-{4-[(4′-chloro-1,1′-biphenyl-2-yl)methyl]piperazin-1-yl}-2-(1H-indol-5-yloxy)-N-({3-nitro-4-[(tetrahydro-2H-pyran-4-ylmethyl)amino]phenyl}sulfonyl)benzamide] | – | 0.618 nM | 1180 nM | 0.618 nM
